In ChEMBL document CHEMBL1157539, “Thousands of chemical starting points for antimalarial lead identification” (Nature, 2010):

Tested on: Plasmodium falciparum
Test: GSK_TCMDC: Inhibition of Plasmodium falciparum 3D7 in whole erythrocytes, using parasite LDH activity as an index of growth.
Assay type: functional, organism-based
Conditions: Plasmodium falciparum, 3D7

SMILES | XC50
COc1ccccc1CCNC(=O)c1cnc(N2CCN(c3ccncc3)CC2)c(Cl)c1 | 1150 nM
c1ccc(CN2CCCN(c3ccc4c(c3)CCN(Cc3ccc(-c5ncc[nH]5)cc3)CC4)CC2)cc1 | 762 nM
CCc1c(CCNCCCCCCNCCc2ccc([N+](=O)[O-])cc2)ccc(OC)c1OC | 727 nM
N=C(NCCc1ccccc1Cl)c1ccc2ccccc2c1 | 1630 nM
CCCC(CNCc1cccc(OC(F)(F)C(F)F)c1)CNc1cc(=O)c2ccccc2[nH]1 (stereo not drawn) | 595 nM
COc1ccc2nccc([C@@H](O)CN3CCC(NC(=O)c4ccc(Oc5ccccc5)cc4)CC3)c2c1 | 1380 nM
CC1(C)N=C(N)N=C(N)N1OCc1ccc2c(c1)OCO2 | 3.68 nM
CN1CC(c2ccc(Cl)c(Cl)c2)OC1=N (stereo not drawn) | 283 nM
COCc1ccccc1C(=O)NCCOc1cc(C)cc(C)c1 | 353 nM
CCc1cn2c3c(cc(C(=O)N[C@@H](Cc4cccc(F)c4)[C@H](O)CNC4CC4)cc13)N(C)S(=O)(=O)CC2 | 143 nM
O=C(Nc1ccc(C(=O)N2CCN(CCN3CCN(c4cccc(C(F)(F)F)c4)CC3)CC2)cc1)c1ccc(OC(F)(F)F)cc1 | 691 nM
CCCCCCn1c2c(c(=N)c3c1CCC3)CCCC2 | 291 nM
c1ccc(COc2ccc(Cn3ccc(-c4ccc(-n5ccnc5)cc4)n3)cc2)cc1.c1ccc(COc2ccc(Cn3nccc3-c3ccc(-n4ccnc4)cc3)cc2)cc1 | 1020 nM
Cc1cc(N2CCOCC2)nc2ccc(NC(=O)c3cccc([N+](=O)[O-])c3)cc12 | 890 nM
CCC(C)(C)c1ccc2nc(N)nc(N)c2c1C | 5.21 nM
CCN(CC)c1ccc(C(c2ccc(N(CC)CC)cc2)c2cccc([N+](=O)[O-])c2)cc1 | 381 nM
Cc1noc(C)c1-c1ccc2c(Nc3ccccc3C(C)(C)C)c(C(=O)NC3CCCC3)cnc2c1 | 1040 nM
Cc1cc(=O)c2cc(Oc3cccc(OC(F)(F)F)c3)ccc2[nH]1 | 862 nM
Oc1ccc(CCNc2nc(NCc3ccccc3-c3cccc(Cl)c3)nc(N3CCNCC3)n2)cc1 | 1280 nM
CC(Cc1ccc(Sc2ccccc2)cc1)NCC(O)c1cccc(C(F)(F)F)c1 (stereo not drawn) | 589 nM
CCCCCCNC(=O)C(N)CCCC(N)C(=O)NCCCCCC (stereo not drawn) | 162 nM
CCCCCCCn1c(=N)n(CC(O)c2ccc(Cl)c(Cl)c2)c2ccccc21 (stereo not drawn) | 782 nM
Nc1ncc(Cc2ccc3c(ccc4ccccc43)c2)c(N)n1 | 758 nM
Cc1nc2ccc3ccc(CNc4ccc(C#N)cc4)cc3c2c(=O)[nH]1 | 1440 nM
c1ccc2cc3c(Nc4ccc(N5CCCCCC5)cc4)ccnc3cc2c1 | 936 nM

SMILES | XC50
COc1ccc(CNCc2cccc(-c3ccc(-c4nc5cc(C(F)(F)F)ccc5[nH]4)cc3)c2)cc1 | 126 nM
Cc1cc2cc(CNCCc3ccccc3Br)ccc2nc1N | 243 nM
CCSc1nnc(C2CCCN(CC(=O)Nc3cc(C(F)(F)F)ccc3Cl)C2)n1CC (stereo not drawn) | 232 nM
CC(=O)N[C@H](C(=O)Nc1ccc(-c2ccc(-c3nc4cc(C(F)(F)F)ccc4[nH]3)cc2)cc1)C(C)C | 889 nM
c1ccc(C(c2ccccc2)N2CCN(C(c3cccnc3)c3nnnn3C3CCCC3)CC2)cc1 (stereo not drawn) | 1080 nM
FC(F)(F)c1ccc2[nH]c(-c3ccc(-c4ccc(CN5CCN(c6cnccn6)CC5)cc4)cc3)nc2c1 | 687 nM
COc1ccc2nccc(N3CCC(CCNCc4cc5c(cn4)OCCO5)CC3)c2n1 | 224 nM
[O-][s+]1c(Cl)c(-c2ccc(Cl)cc2)c2ccc(Cl)cc21 (stereo not drawn) | 993 nM
CN(CCON1C(=N)N=C(N)NC1(C)C)c1ccccc1 | 19.4 nM
Cc1ccc(NC(=O)c2cccc(CN3CCCN(CC4CCCCC4)CC3)c2)cc1F | 596 nM
CC(CN(C)C)C(=O)Nc1ccc(-c2cccc(-c3nc4cc(C(F)(F)F)ccc4[nH]3)c2)cc1 (stereo not drawn) | 210 nM
COc1ccc2nccc(NC(=O)CNCc3ccc(-c4ccccc4)cc3)c2c1 | 769 nM
COc1cc2nc(NCC3CCN(C(=O)c4ccc(-c5ccc(C(=O)N(C)C)cc5C)cc4)CC3)nc(N)c2cc1OC | 948 nM
CN=c1nc(NN=Cc2ccccc2Cl)[nH]c(=Nc2cccc(C(F)(F)F)c2)[nH]1 | 915 nM
c1cc(CN2CCCCC2)cc(-c2cccc(-c3nc4ccccc4[nH]3)c2)c1 | 828 nM
Cc1cc(Nc2cccc(Cl)c2)nc2ccc(NC(=O)c3ccc(=O)[nH]c3)cc12 | 995 nM
COc1ccccc1C1CCN(C2CCC(NC(=O)/C=C/c3ccc4c(c3)OC(F)(F)O4)CC2)CC1 (stereo not drawn) | 836 nM
CCOc1ccc(C(Cc2ccccc2)NC(=O)c2cccnc2)cc1OCC (stereo not drawn) | 769 nM
CCCC(C)NC[C@@H](O)[C@H](Cc1ccccc1)NC(=O)c1cc(NCC)cc(N2CCCCS2(=O)=O)c1 (stereo partly drawn) | 163 nM
CCNc1cc(C(=O)N[C@@H](Cc2ccccc2)[C@H](O)CNC23CCC(CC2)CC3)cc(N2CCCCS2(=O)=O)c1 | 63.2 nM
CN(Cc1ccncc1)C(Cc1ccccc1)C1CCN(Cc2ccc(O)c(Cl)c2)CC1 (stereo not drawn) | 747 nM
COc1cccc(OC)c1-c1ccccc1NC(=O)N1CCCc2cc(C)ccc21 | 823 nM
CCOc1ccc2c(=NN=Cc3ccc(OC)c(OC)c3)cc(C)[nH]c2c1 | 700 nM
O=C(N[C@H]1CCN(CCc2ccc(O[C@H]3CCNC3)c(Cl)c2)C1)c1ccc(Cl)c(Cl)c1 | 890 nM
COc1ccc(-c2cccc(NC(=O)c3ccc(C#N)cc3)c2)cc1CN1CCN(C)CC1 | 990 nM

SMILES | XC50
O=C(/C=C/c1ccc(Cl)c(Cl)c1)NCCCCCN1CC[C@H](NC(=O)c2sc3ccccc3c2Cl)C1 | 809 nM
Cc1cc(C(=O)Nc2ccc3c(c2)CCN3C2CCN(Cc3csc4ccccc34)C2)no1 (stereo not drawn) | 119 nM
COC(=O)c1cc(/C(C)=N/Nc2nc3ccccc3[nH]2)ccc1O | 676 nM
CC(=O)Nc1cc(C(=O)Nc2cccc(-c3cccc(-c4nc5cc(C(F)(F)F)ccc5[nH]4)c3)c2)ccc1C | 215 nM
COc1ccc2nccc([C@@H](O)CN3CCC(NCc4ccc5c(c4)OCCO5)CC3)c2c1 | 288 nM
Cc1cc(N)c2cc(NC(=O)c3cc4ccccc4s3)ccc2n1 | 115 nM
O=C(NC1CC1)c1ccc(N2CCCCN2CCc2ccccc2)c(C(F)(F)F)c1 | 622 nM
CCNc1cc(C(=O)N[C@@H](Cc2ccccc2Cl)[C@H](O)CNC2CCCCC2)cc(N2CCCCS2(=O)=O)c1 | 803 nM
COc1cc(C(F)(F)F)c2cc(CNCCCNc3nc4ccccc4[nH]3)[nH]c2c1 | 305 nM
CC(C)N(C)C(=O)n1cnc(S(=O)(=O)C2CC3CCC2C3)n1 (stereo not drawn) | 57 nM
COC(=O)c1cc(C(O)CNC(C)CCc2cccc(F)c2)ccc1O (stereo not drawn) | 1180 nM
O=C(NCCN1CCCC1)c1cccc(Nc2nccc(Nc3ccc(Oc4ccccc4)cc3)n2)c1 | 654 nM
c1ccc(CNc2nc(NCCN3CCCCC3)nc3ccccc23)cc1 | 1020 nM
Cc1cccc2nc(-c3ccc(-c4cccc(CN5CCCCC5)c4)s3)[nH]c12 | 468 nM
CN1CCC(N2CCN(Cc3ccc(-c4cccc(-c5nc6cc(F)ccc6[nH]5)c4)cc3)CC2)CC1 | 173 nM
CC(C)(C)c1ccc(-c2ccccc2CNC(=O)c2cccc(O)c2)cc1 | 267 nM
Cc1ccccc1OCC(=O)Nc1ccc(-c2nc3cc4ccccc4cc3[nH]2)cc1 | 753 nM
CC(C)(C)CCN1CCC(CNC(=O)c2cc(-c3cccc(C(F)(F)F)c3)cs2)C1 (stereo not drawn) | 887 nM
Cc1cc(CN2CCC(N3CC(c4ccccc4)(c4ccccc4)OC3=O)C2)ccc1O (stereo not drawn) | 776 nM
COc1ccc2nccc([C@@H](O)CN3CCC(NCc4nc5ccccc5[nH]4)CC3)c2c1 | 1070 nM
CC(=O)Oc1c(C2C=CCCC2)c(OC(C)=O)c2ccccc2c1OC(C)=O (stereo not drawn) | 605 nM
Cc1cc(=NN=Cc2ccc(Cl)cc2)c2cc(F)ccc2[nH]1 | 828 nM
CC(C(=O)Nc1ccc(Br)cc1Br)N1CCN(C(=O)c2ccco2)CC1 (stereo not drawn) | 750 nM
COc1ccc(Cc2c(Cl)nc3nc(N)nc(N)c3c2C)c(OC)c1OC | 725 nM
COc1cccc(C(=O)NCc2nnc(S)n2-c2ccc(Cl)c(Cl)c2)c1 | 173 nM

SMILES | XC50
Cc1ccc(Cn2ncc(NC3CCNCC3)c(Cl)c2=O)cc1NC(=O)Nc1ccc(-c2ccccc2)cc1 | 657 nM
C=CC(=O)Nc1ccc(Cl)cc1C(O)c1ccccc1 (stereo not drawn) | 182 nM
Cc1cc(Nc2ccc(C)c(Cl)c2)n2ncnc2n1 | 552 nM
Cc1nc2nc(N)nc(N)c2c(C)c1Cc1ccccc1Br | 60.2 nM
N#Cc1cccc(Nc2nccc(NCC(O)c3ccc(C(F)(F)F)cc3)n2)c1 (stereo not drawn) | 556 nM
Cc1nc2ccccc2n1C1CC2CCC(C1)N2Cc1nccn1-c1ccccc1 (stereo not drawn) | 366 nM
NCC(NC(=O)c1ccc(-c2c[nH]c3ncccc23)s1)c1ccccc1 (stereo not drawn) | 546 nM
COc1ccc(Cn2c(Nc3cccc(C(F)(F)F)c3)nc3cc(C(=O)NCCN4CCCC4)ccc32)cc1Cl | 830 nM
COc1cc(OC)nc(-c2cccc(NC(=O)c3ccc4c(=O)n(CCN5CCCCC5)cnc4c3)c2)n1 | 744 nM
CC(=O)Nc1nc(C(=O)Nc2cccc(-c3cccc(-c4nc5cccc(C)c5[nH]4)c3)c2)cs1 | 115 nM
Cc1cc(OCCCN2CCC(NS(=O)(=O)c3cccc(Br)c3)C2)c2ccccc2n1 (stereo not drawn) | 1210 nM
CC[C@H]1CN2CC[C@H]1C[C@H]2[C@H](O)c1cc(N2CCCC(CO)C2)nc2ccc(OC)cc12 (stereo partly drawn) | 77.5 nM
Cc1ccc(NC(=O)c2ccc(CN3CCCN(Cc4cccc(O)c4)CC3)cc2)cc1F | 591 nM
CCOc1ccc(-n2nc3c(Cl)nnc(-c4ccccc4)c3c2-c2ccccc2)cc1 | 226 nM
Cc1ccc2nc(-c3ccc(/C=C/C(=O)NC4CCN(Cc5ccccc5)CC4)cc3)[nH]c2c1C | 632 nM
CCOC(=O)c1c(CCc2ccc(C(F)(F)F)cc2)nc2c(c1-c1ccc(C(=O)N[C@@H](C)c3ccncc3)cc1)C(=O)N1CCC[C@@H]21 | 924 nM
CC[C@H](NC(=O)c1c(CC2CCN(CC(C)=O)CC2)c(-c2ccccc2)nc2ccccc12)c1ccccc1 | 381 nM
Cc1cnc(-c2ccc(NC(=O)c3coc4ccc(N5CC(C)N(C)C(C)C5)cc34)cc2)o1 (stereo not drawn) | 645 nM
COc1ccc2c(c1)CC(C)(C)NC2CCCCCCCCC1NC(C)(C)Cc2cc(OC)ccc21 (stereo not drawn) | 1300 nM
CN1CC=C(c2c[nH]c3ccc(Sc4ccccc4)cc23)CC1 | 356 nM
COc1ccc2nc(-c3cc(-c4ccc(NC(=O)C(C)C)cc4)cnc3N)[nH]c2c1 | 557 nM
N#Cc1ccc(-c2ccc(C(=O)NCCCCN3CCC(n4cnc5ccccc54)CC3)cc2)cc1 | 910 nM
Cc1c(C(=O)Nc2cc(Sc3ccc(F)cc3)cc([N+](=O)[O-])c2)sc2ncn(Cc3ccccc3F)c(=O)c12 | 798 nM
